Drawing on patent publication US11369688B2, “Hybrid telodendrimers” (THE REGENTS OF THE UNIVERSITY OF CALIFORNIA, priority 2016, dated 2022), this text covers Observation for five compounds.

This series can be described thus: Visual observation of drug-loaded crosslinked PEG5K-(Ahx-(NAc-Cys))4/CA4 nanocarriers. The class given is physicochemical. To be noted: 1 mg drug/10 mg PEG5K-(Ahx-(NAc-Cys))4/CA4, crosslinked; effective concentration 2 mg drug/20 mg polymer per ml PBS.
Regarding `CO[C@H]1C(=O)[C@]2(C)[C@@H](OC)C[C@H]3OC[C@@]3(OC(C)=O)[C@H]2[C@H](OC(=O)c2ccccc2)[C@]2(O)C[C@H](OC(=O)[C@H](O)[C@@H](NC(=O)OC(C)(C)C)c3ccccc3)C(C)=C1C2(C)C` [Cabazitaxel, cabazitaxel], the Observation result is on record as “Clear solution”.
Take `CC(=O)O[C@@]12CO[C@@H]1C[C@H](O)[C@@]1(C)C(=O)[C@H](O)C3=C(C)[C@@H](OC(=O)[C@H](O)[C@@H](NC(=O)OC(C)(C)C)c4ccccc4)C[C@@](O)([C@@H](OC(=O)c4ccccc4)[C@H]21)C3(C)C` [Docetaxel, docetaxel]: the Observation result is given as “Clear solution”.
Regarding `COc1cccc2c1C(=O)c1c(O)c3c(c(O)c1C2=O)C[C@@](O)(C(=O)CO)C[C@@H]3O[C@H]1C[C@H](N)[C@H](O)[C@H](C)O1` [Doxorubicin], the Observation result is recorded as “Clear solution”.
`CCc1c2c(nc3ccc(O)cc13)-c1cc3c(c(=O)n1C2)COC(=O)[C@]3(O)CC` [SN-38]: the Observation entry is on record as “Huge precipitate”.
Consider `CC[C@]1(O)C[C@@H]2CN(CCc3c([nH]c4ccccc34)[C@@](C(=O)OC)(c3cc4c(cc3OC)N(C)[C@H]3[C@@](O)(C(=O)OC)[C@H](OC(C)=O)[C@]5(CC)C=CCN6CC[C@]43[C@@H]65)C2)C1` [Vinblastine], for which the Observation entry is listed as “Clear”.
